These results are taken from ChEMBL document CHEMBL1126345, “Synthesis of biological evaluation of 4-deshydroxy-4-methyl etoposide and teniposide analogs” (Bioorg Med Chem Lett, 1992).

Values after ≈ are worked out from the molar mass of the structure shown. Active and inactive are the calls of the source. No cut-off for these calls is given here.

The target in assay [1] is DNA topoisomerase II (Homo sapiens) (UniProt P11388+Q02880). The experiment in a line: Double strand DNA breakage reflecting stabilization of DNA topoisomerase II intermediate by the compound expressed in terms of ng of DNA/unit of enzyme/mM of drug.
Assay [2] is described as follows: Resistance ratio was determined as the ratio of resistance to cytotoxicity against human colon tumor (HCT116) to that of (HCT/VP35) cells grown in culture. It counts as functional.
The test system of assay [3] is P388. The experiment in a line: In vivo antitumor activity against Murine P388 murine leukemia cell line up to a conc of 100 mg/kg; IA - Totally inactive. Conditions: Mus musculus. It counts as functional, organism-based. Further details: dose 100 mg/kg.
In assay [4] the test system is HCT-116. The experiment in a line: In vitro inhibition of compound against HCT/VP35 cell lines was determined after 72 hr of administration of the dose. Conditions: Homo sapiens, HCT-116, 72 h. It counts as functional, cell-based.
Assay [5] concerns P388. The experiment in a line: In vivo antitumor activity against Murine P388 murine leukemia cell line up to a conc of 100 mg/kg; A - Active. It counts as functional, organism-based. Conditions: Mus musculus. Details: dose 100 mg/kg.
Assay [6] has as its system HCT cell line. Nature of the assay: In vitro inhibition of compound against HCT cell lines was determined after 72 hr of administration of the dose. It counts as functional, cell-based. The note with it: Homo sapiens.

A word on the IC50: it is the concentration that inhibits the measured activity by half. Lower therefore signals greater potency.

In assay [1], `COc1cc(OC)cc([C@@H]2c3cc4c(cc3[C@@H](O[C@@H]3O[C@@H]5CO[C@@H](C)O[C@H]5[C@H](O)[C@H]3O)[C@H]3COC(=O)[C@H]23)OCO4)c1` gave a DSB of 27. For the same compound, the Resistance ratio in assay [2] turned out to be 0.5.

For `C=Cc1c(OC)cc([C@@H]2c3cc4c(cc3[C@@H](O[C@@H]3O[C@@H]5CO[C@@H](C)O[C@H]5[C@H](O)[C@H]3O)[C@H]3COC(=O)[C@H]23)OCO4)cc1OC`, in assay [1], the DSB was 17. Further, the outcome in assay [3] was inactive.

Consider `COc1cc([C@@H]2c3cc4c(cc3[C@@H](O[C@@H]3O[C@@H]5CO[C@@H](c6cccs6)O[C@H]5[C@H](O)[C@H]3O)[C@H]3COC(=O)[C@H]23)OCO4)cc(OC)c1O`, for which, in assay [1], the DSB came out at 346.

In assay [1], `C=CCc1c(OC)cc([C@@H]2c3cc4c(cc3[C@@H](O[C@@H]3O[C@@H]5CO[C@@H](C)O[C@H]5[C@H](O)[C@H]3O)[C@H]3COC(=O)[C@H]23)OCO4)cc1OC` displayed a DSB of 17. Also, the result in assay [3] was inactive.

For the compound `COc1cc([C@@H]2c3cc4c(cc3[C@@H](O[C@@H]3O[C@@H]5CO[C@@H](C)O[C@H]5[C@H](O)[C@H]3O)[C@H]3COC(=O)[C@H]23)OCO4)cc(OC)c1O`, the DSB in assay [1] is 305.

Turning to `COc1cc([C@@H]2c3cc4c(cc3[C@@H](O[C@@H]3O[C@@H]5CO[C@@H](C)O[C@H]5[C@H](O)[C@H]3O)[C@H]3COC(=O)[C@H]23)OCO4)cc(OC)c1C`, the IC50 in assay [4] and in assay [6] was 5.7 µg/mL (≈ 9.72 µM) throughout. Further, the result in assay [5] was Active. In assay [1], this compound returned a DSB of 26.

In turn, `C=CCc1c(OC)cc([C@@H]2c3cc4c(cc3[C@@H](O[C@@H]3O[C@@H]5CO[C@@H](c6cccs6)O[C@H]5[C@H](O)[C@H]3O)[C@H]3COC(=O)[C@H]23)OCO4)cc1OC` returned a DSB in assay [1] of 42.

Turning to `COc1cc([C@@H]2c3cc4c(cc3[C@@H](O[C@@H]3O[C@@H]5CO[C@@H](c6cccs6)O[C@H]5[C@H](O)[C@H]3O)[C@H]3COC(=O)[C@H]23)OCO4)cc(OC)c1C`, in assay [1], the DSB came out at 49. Moreover, the result in assay [3] was inactive.
